The source of these data is patent publication EP4806894A1, “TNAP INHIBITORY COMPOUND AND USE THEREOF” (Rednvia Co., Ltd., priority 2023, dated 2025).

The target in experiment [1] is T1, TNAP (Homo sapiens, UniProt P05186).
T1 sequence (P05186 18-502 limits assumed): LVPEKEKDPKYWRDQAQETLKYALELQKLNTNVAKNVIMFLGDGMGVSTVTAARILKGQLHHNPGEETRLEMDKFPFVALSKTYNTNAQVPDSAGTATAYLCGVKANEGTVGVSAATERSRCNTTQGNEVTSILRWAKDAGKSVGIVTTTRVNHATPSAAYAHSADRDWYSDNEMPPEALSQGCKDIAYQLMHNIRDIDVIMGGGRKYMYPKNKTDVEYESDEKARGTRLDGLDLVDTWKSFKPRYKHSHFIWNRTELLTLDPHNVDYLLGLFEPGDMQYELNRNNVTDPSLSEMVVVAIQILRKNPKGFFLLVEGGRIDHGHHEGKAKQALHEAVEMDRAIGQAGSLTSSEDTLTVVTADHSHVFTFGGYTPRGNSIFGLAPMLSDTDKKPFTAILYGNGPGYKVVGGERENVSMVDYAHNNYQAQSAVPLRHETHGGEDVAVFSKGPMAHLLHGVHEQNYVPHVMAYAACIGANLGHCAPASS
Kind of experiment: TNAP inhibitory activity, colorimetric assay (alkaline phosphatase assay kit ab83369, pNPP substrate). Format: biochemical. The following applies: TNAP enzyme, 2 hours at room temperature, absorbance 405 nm. Here is the method: The TNAP inhibitory activity of the compounds according to the present invention was analyzed by colorimetric assay.
The experiments were performed according to the protocol of the alkaline phosphatase assay kit ab83369.
TNAP enzyme at a concentration of 0.2 ng/µl was dispensed into a 96-well plate (Costar) (10 µl/well), to which the 10-fold diluted test substance was added (15 µl/well). The plate was incubated at room temperature, shielded from light, for 10 minutes to allow the enzyme and compound to act. After incubation, 125 µl of 1 mM substrate (pNPP) was added to each well of the plate, and the plate was incubated for 2 hours at room temperature in a darkened state to allow the enzyme, substrate, and test compound to act. Absorbance was measured at 405 nm using a microplate reader (Tecan spark), and IC50 was calculated using GraphPad Prism 9. The amount of p-nitrophenol produced was calculated through the absorbance, and the degree of TNAP activity inhibition was evaluated through the degree of inhibition of p-nitrophenol production, and the concentration of the compound that inhibited 50% was calculated as the IC50 value.

The test system of experiment [2] is saos-2 cells. Kind of experiment: Anticalcification efficacy in saos-2 cells (osteogenic medium, Alizarin Red staining). Format: cell-based. The following applies: Homo sapiens, 168 h, test compound 1 µM, 7 days osteogenic medium, Alizarin Red absorbance 540 nm, read-out: calcification inhibition. Here is the method: To confirm the inhibitory effect of calcification in saos-2 cells in which calcification is induced by overexpression of TNAP, saos-2 cells were cultured in a culture medium in an incubator at 37°C, 95% humidity, and 5% CO2. RPMI-1640 (Corning) supplemented with 10% FBS (Gibco) and 1% Pen/Strep (Gibco) was used as the culture medium.
Saos-2 cells were seeded in a 48-well plate at the density of 1.5 x 10^4 cells/well and used in the experiment when they reached 80-90% confluence after stabilization for 2 days.
After saos-2 cells were cultured in a 48-well plate to 80-90% confluence, the culture medium was removed and replaced with an osteogenic medium (OM). DMEM (Gibco) containing 10% FBS, 1% Pen/Strep, 100 nM dexamethasone (Sigma), 10 mM β-glycerophosphate (Sigma), and 0.05 mM L-ascorbic acid (Sigma) was used as the OM. Osteogenic differentiation of saos-2 cells by OM was induced for 7 days, and OM was replaced every 2 to 3 days.
When inducing calcification through OM in saos-2 cells, the cells were treated with concentrations of […] of the TNAP inhibitor test compounds with the OM replacement cycle, except for the control group (OM).
After 7 days of OM induction, the medium was removed from each well and the plate was washed twice with PBS. Cells were fixed with 4% paraformaldehyde for 1 hour, then the fixative was removed and washed twice with deionized water (DW). ARS solution was added to the plate and shaken for 1 hour to stain the cells. When the cells were sufficiently stained red, the dye was removed, the cells were washed carefully with DW, dried, and then photographs were taken of the stained cells. The red-stained area represents calcification induced by OM, and the degree of calcification was determined based on the degree of redness. To quantify this, 10% cetylpyridinium chloride was dispensed into the wells and the dye was dissolved. The dye-dissolved solution was transferred to each well of a 96 well plate and absorbance was measured at 540 nm.
The degree of decrease in the measured absorbance by the test compounds based on the absorbance for OM was evaluated as the degree of inhibition of calcification.

Structures can show the parent of a compound that is named as a salt.

One may read the IC50 as the concentration that gives 50% inhibition. One may read the inhibition as the share of the control response that was lost under treatment. With `O=C1NCCc2ncc(NS(=O)(=O)c3ccc4c(c3)OCCO4)cc21` [Example 24, N-(5-oxo-5,6,7,8-tetrahydro-1,6-naphthyridine-3-yl)-2,3-dihydrobenzo[b][1,4]dioxine-6-sulfonamide], in experiment [1], the 50% inhibitory concentration (IC50) was ≥ 1000 nM. The inhibition at 1 µM in experiment [2] is < 0%.
Regarding `O=C1COc2ccc(S(=O)(=O)Nc3cnc4c(c3)C(=O)NCC4)cc2N1` [Example 25, 3-oxo-N-(5-oxo-5,6,7,8-tetrahydro-1,6-naphthyridine-3-yl)-3,4-dihydro-2H-benzo[b][1,4]oxazine-6-sulfonamide], the concentration for half-maximal inhibition (IC50) in experiment [1] is ≥ 1000 nM. The inhibition at 1 µM in experiment [2] was < 0%.
On the same counts, the results for `COC(=O)Cc1ccc(-c2ccc(OC)c(S(=O)(=O)Nc3cnc4c(c3)C(=O)NC4)c2)cc1` [Example 27, methyl 2-(4'-methoxy-3'-(N-(5-oxo-6,7-dihydro-5H-pyrrolo[3,4-b]pyridine-3-yl)sulfamoyl)-[1,1'-biphenyl]-4-yl)acetate] are 100 to 1000 nM and ≥ 50%.
On the same counts, the results for `COc1ccc(-c2ccc(CC(=O)O)cc2)cc1S(=O)(=O)Nc1cnc2c(c1)C(=O)NC2` [Example 28, 2-(4'-methoxy-3'-(N-(5-oxo-6,7-dihydro-5H-pyrrolo[3,4-b]pyridine-3-yl)sulfamoyl)-[1,1'-biphenyl]-4-yl)acetic acid] are 10 to 100 nM and ≥ 50%.
On the same counts, the results for `COc1ccc(-c2ccc3c(c2)OCCO3)cc1S(=O)(=O)Nc1cnc2c(c1)C(=O)NCC2` [Example 29, 5-(2,3-dihydrobenzo[b][1,4]dioxine-6-yl)-2-methoxy-N-(5-oxo-5,6,7,8-tetrahydro-1,6-naphthyridine-3-yl)benzenesulfonamide] are 100 to 1000 nM and ≥ 50%.
With `COc1ccc(-c2ccc(OC)c(S(=O)(=O)Nc3cnc4c(c3)C(=O)NCC4)c2)cc1` [Example 30, 4,4'-dimethoxy-N-(5-oxo-5,6,7,8-tetrahydro-1,6-naphthyridine-3-yl)-[1,1'-biphenyl]-3-sulfonamide], the 50% inhibitory concentration (IC50) in experiment [1] is ≥ 1000 nM. Besides, in experiment [2], the inhibition at 1 µM lay within 0 to 50%.
On the same counts, the results for `COc1ccc(-c2ccncc2)cc1S(=O)(=O)Nc1cnc2c(c1)C(=O)NCC2` [Example 31, 2-methoxy-N-(5-oxo-5,6,7,8-tetrahydro-1,6-naphthyridine-3-yl)-5-(pyridine-4-yl)benzenesulfonamide] are 100 to 1000 nM and ≥ 50%.
On the same counts, the results for `COc1ccc(-c2ccc(C3(C(=O)O)CC3)cc2)cc1S(=O)(=O)Nc1cnc2c(c1)C(=O)NCC2` [Example 32, 1-(4'-methoxy-3'-(N-(5-oxo-5,6,7,8-tetrahydro-1,6-naphthyridine-3-yl)sulfamoyl)-[1,1'-biphenyl]-4-yl)cyclopropane-1-carboxylic acid] are 10 to 100 nM and ≥ 50%.
The matching figures for `COc1ccc(-c2ccc(CC(=O)O)cc2)cc1S(=O)(=O)Nc1cnc2c(c1)C(=O)NCC2` [Example 33, 2-(4'-methoxy-3'-(N-(5-oxo-5,6,7,8-tetrahydro-1,6-naphthyridine-3-yl)sulfamoyl)-[1,1'-biphenyl]-4-yl)acetic acid]: 10 to 100 nM and ≥ 50%.
In experiment [1], `COc1ccc(-c2ccc(C(=O)O)cc2)cc1S(=O)(=O)Nc1cnc2c(c1)C(=O)NCC2` [Example 34, 4'-methoxy-3'-(N-(5-oxo-5,6,7,8-tetrahydro-1,6-naphthyridine-3-yl)sulfamoyl)-[1,1'-biphenyl]-4-carboxylic acid] yielded an IC50 of 100 to 1000 nM. Further, in experiment [2], the inhibition at 1 µM is ≥ 50%.
On the same counts, the results for `O=C(O)Cc1ccc(-c2ccc(F)cc2S(=O)(=O)Nc2cnc3c(c2)C(=O)NCC3)cc1` [Example 35, 2-(4'-fluoro-2'-(N-(5-oxo-5,6,7,8-tetrahydro-1,6-naphthyridine-3-yl)sulfamoyl)-[1,1'-biphenyl]-4-yl)acetic acid] are ≤ 10 nM and ≥ 50%.
On the same counts, the results for `O=C1NCCc2ncc(NS(=O)(=O)c3cc(F)ccc3-c3ccc(C4(C(=O)O)CC4)cc3)cc21` [Example 36, 1-(4'-fluoro-2'-(N-(5-oxo-5,6,7,8-tetrahydro-1,6-naphthyridine-3-yl)sulfamoyl)-[1,1'-biphenyl]-4-yl)cyclopropane-1-carboxylic acid] are 10 to 100 nM and ≥ 50%.
On the same counts, the results for `O=C1NCCc2ncc(NS(=O)(=O)c3c(F)cc(F)cc3-c3ccc(C4(C(=O)O)CC4)cc3)cc21` [Example 37, 1-(3',5'-difluoro-2'-(N-(5-oxo-5,6,7,8-tetrahydro-1,6-naphthyridine-3-yl)sulfamoyl)-[1,1'-biphenyl]-4-yl)cyclopropane-1-carboxylic acid] are ≥ 1000 nM and < 0%.
On to `O=C1NCCc2ncc(NS(=O)(=O)c3cc(-c4ccc(C5(C(=O)O)CC5)cc4)cc4c3OCC4)cc21` [Example 38, 1-(4-(7-(N-(5-oxo-5,6,7,8-tetrahydro-1,6-naphthyridine-3-yl)sulfamoyl)-2,3-dihydrobenzofuran-5-yl)phenyl)cyclopropane-1-carboxylic acid], for which, in experiment [1], the IC50 is ≥ 1000 nM. Also, in experiment [2], the inhibition at 1 µM is < 0%.
The matching figures for `NCc1ccc(-c2cc(F)cc(F)c2S(=O)(=O)Nc2cnc3c(c2)C(=O)NCC3)cc1` [Example 40, 4'-(aminomethyl)-3,5-difluoro-N-(5-oxo-5,6,7,8-tetrahydro-1,6-naphthyridine-3-yl)-[1,1'-biphenyl]-2-sulfonamide hydrochloride]: ≥ 1000 nM and < 0%.
In the case of `NCc1ccc(-c2cc3c(c(S(=O)(=O)Nc4cnc5c(c4)C(=O)NCC5)c2)OCC3)cc1` [Example 41, 5-(4-(aminomethyl)phenyl)-N-(5-oxo-5,6,7,8-tetrahydro-1,6-naphthyridine-3-yl)-2,3-dihydrobenzofuran-7-sulfonamide], the IC50 in experiment [1] is ≥ 1000 nM. Moreover, the inhibition at 1 µM in experiment [2] was < 0%.
On the same counts, the results for `CCOC(=O)C(C)n1cc(-c2ccc(OC)c(S(=O)(=O)Nc3cnc4c(c3)C(=O)NCC4)c2)cn1` (stereo not shown) [Example 42, ethyl 2-(4-(4-methoxy-3-(N-(5-oxo-5,6,7,8-tetrahydro-1,6-naphthyridine-3-yl)sulfamoyl)phenyl)-1H-pyrazole-1-yl)propanoate] are ≤ 10 nM and ≥ 50%.
`COc1ccc(-c2cnn(C(C)C(=O)O)c2)cc1S(=O)(=O)Nc1cnc2c(c1)C(=O)NCC2` (stereo not shown) [Example 43, 2-(4-(4-methoxy-3-(N-(5-oxo-5,6,7,8-tetrahydro-1,6-naphthyridine-3-yl)sulfamoyl)phenyl)-1H-pyrazole-1-yl)propanoic acid] showed an IC50 in experiment [1] of 10 to 100 nM. Further, in experiment [2], the inhibition at 1 µM was ≥ 50%.
The matching figures for `COc1ccc(-c2cnc(N)nc2)cc1S(=O)(=O)Nc1cnc2c(c1)C(=O)NCC2` [Example 44, 5-(2-aminopyrimidine-5-yl)-2-methoxy-N-(5-oxo-5,6,7,8-tetrahydro-1,6-naphthyridine-3-yl)benzenesulfonamide]: 100 to 1000 nM and ≥ 50%.
The matching figures for `COc1ccc(-c2cnn3ccccc23)cc1S(=O)(=O)Nc1cnc2c(c1)C(=O)NCC2` [Example 45, 2-methoxy-N-(5-oxo-5,6,7,8-tetrahydro-1,6-naphthyridine-3-yl)-5-(pyrazolo[1,5-a]pyridine-3-yl)benzenesulfonamide]: 100 to 1000 nM and ≥ 50%.
